Broadly, the melting point is the temperature of the solid-liquid transition.

Compound `c1ccc(C(CCN2CCC(n3cnc4ccccc43)CC2)c2ccccc2)cc1` [Example 2, 1-[1-(3,3-Diphenylpropyl)-piperidin-4-yl]benzimidazole] returned a melting point of 156 to 157 °C.

As for `N#CC(CCN1CCC(n2cnc3ccccc32)CC1)(c1ccccc1)c1ccccc1` [Example 19, 1-[1-(3-Cyano-3,3-diphenylpropyl)-piperidin-4-yl]benzimidazole], the melting point fell in the range of 172 to 173 °C.

The values are drawn from patent publication US6989393B2, “Ccr5 modulators benzimidazoles or benzotriazoles” (AstraZeneca AB, priority 2000, dated 2006).
